Experimental findings from US9657071B2, “IgE peptide vaccine” (NIPPON ZENYAKU KOGYO CO., LTD., priority 2012, dated 2017) are described below.

For assay [1], the system named is human IgE. Description: Reactivity of serum of peptide-immunized rabbit with human IgE (ELISA). It counts as in vivo. To be noted: 500 μg peptide + complete adjuvant s.c. Here is the method: 2 mL of the 250 μg/mL peptide (a total of 500 μg) used in Example 2 was mixed with an equal amount of a complete adjuvant (a total of 4 mL). Each rabbit was immunized with this mixture by the subcutaneous administration (amount of the peptide: 500 μg) at day 0 and weeks 2, 4, 6, and 8. Blood was collected 5 weeks after the week-8 administration (week 13 counted from day 0). Booster immunization was performed at week 14 counted from day 0, and blood was further collected 2 weeks thereafter (week 16 counted from day 0). Antibody titers in the collected blood were measured by ELISA. The serum of a rabbit that received no peptide was used as a control.
ELISA was performed by the following method: each […] recombinant CH3 solution of dog IgE, human IgE, mouse IgE, dog IgG, and cat IgE was immobilized at a concentration of 100 μL/well (100 ng/well) to a plate. The serum collected from the immunized rabbit was used (×200 to ×102400) as a primary antibody. An enzyme-labeled anti-rabbit IgG antibody (Zymed Laboratories Inc.) was used as a secondary antibody.
A general note: An ELISA detects its analyte on a solid surface through an enzyme-linked reagent.

Assay [2] relates to Dog subjected to P-K test. The assay can be described thus: Prausnitz-Kustner (P-K) test. The assay is classed as in vivo. To be noted: conclusion of P-K test. As to the method: The P-K test refers to a method for qualitatively evaluating antigen-specific IgE in test serum and employs additional antigen-unsensitized individuals. The test is summarized as follows:
1) Antigen-unsensitized animals are prepared as animals subjected to the P-K test.
2) Test serum or serum of a healthy animal (control) is intracutaneously administered to the animals subjected to the P-K test. When antigen-specific IgE is present in the test serum, the IgE binds to the surface of mast cells in the skins of the animals subjected to the P-K test within 48 hours after the administration.
3) 48 hours after the serum administration, an antigen solution is intracutaneously administered to the same sites as above. When antigen-specific IgE is present in the test serum, the antigen binds to the antigen-specific IgE bound with the surface of mast cells to form IgE cross-linking. This triggers the degranulation of the mast cells, resulting in flare confirmed in the skins.
The administration group and the non-administration group differed most largely in their serum Der f 2-specific IgE concentrations at day 77 (7 days after the second sensitization) when the effects of the test substance were thus confirmed to be maximized. […]

As for “QEKKTSVSASQWYTKHHNNATTSIT (listed as Mus musculus) [MOUSE CH3-4-17-11]”, the “response of immobilized human IgE to peptide-administered rabbit serum” value in assay [1] is given as “responded”. The “effect of vaccine-induced IgG on binding of IgE to mast cells” value in assay [2] is on record as “blocks the binding of the IgE to mast cells”.
